The values that follow come from patent US9296723B2, “NAMPT inhibitors” (AbbVie Inc., priority 2012, dated 2016).

In assay [1] the target is T1, NAMPT (Homo sapiens, UniProt P43490). The experiment in a line: Time-Resolved Fluorescence Resonance Energy Transfer (TR-FRET) Binding Assay of NAMPT. To be noted: 6.8 nM NAMPT, 200 nM probe, equilibrated 3 hours, no substrates. In a few lines:
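Compound was mixed with enzyme, probe and antibody and equilibrated 3 h at room temperature. TR-FRET read at Ex 337 nm, Em 520/495 nm. Ratios were normalized to controls and fitted to a four-parameter logistic equation for IC50.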

In assay [2] the target is T1, NAMPT. The experiment in a line: TR-FRET Binding Assay of NAMPT with PRPP. To be noted: 2 nM NAMPT, 2 nM probe, 200 µM PRPP and 2.5 mM ATP, equilibrated 16 hours. Here is the method:
Time-Resolved Fluorescence Resonance Energy Transfer (TR-FRET) Binding Assay of NAMPT with PRPP
Compound handling and data processing were identical to the assay in the absence of substrates (above). Final concentrations were 1× assay buffer, 2% DMSO, 2 nM NAMPT, 2 nM probe, 1 nM Tb-anti-His antibody (Invitrogen #PV5895), 200 µM PRPP and 2.5 mM ATP. Reactions were equilibrated for 16 hours prior to measurement to allow for potential enzymatic modification of test compounds.

For the next assay, the system named is PC3 cells. Briefly: NAMPT Cell Proliferation Assay (Cell Titer Glo). Type of assay: cell-based. To be noted: Homo sapiens, PC-3, 120 h, incubated 5 days, cell viability. A digest of the protocol: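 PC3 cells (500/well, RPMI with 10% heat-inactivated FBS) were exposed to 10-fold compound dilutions from […] for 5 days at 37 °C, 5% CO2. Viability was read with Cell Titer Glo; IC50 from sigmoidal fit of percent inhibition.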

T1 sequence (P43490 whole entry): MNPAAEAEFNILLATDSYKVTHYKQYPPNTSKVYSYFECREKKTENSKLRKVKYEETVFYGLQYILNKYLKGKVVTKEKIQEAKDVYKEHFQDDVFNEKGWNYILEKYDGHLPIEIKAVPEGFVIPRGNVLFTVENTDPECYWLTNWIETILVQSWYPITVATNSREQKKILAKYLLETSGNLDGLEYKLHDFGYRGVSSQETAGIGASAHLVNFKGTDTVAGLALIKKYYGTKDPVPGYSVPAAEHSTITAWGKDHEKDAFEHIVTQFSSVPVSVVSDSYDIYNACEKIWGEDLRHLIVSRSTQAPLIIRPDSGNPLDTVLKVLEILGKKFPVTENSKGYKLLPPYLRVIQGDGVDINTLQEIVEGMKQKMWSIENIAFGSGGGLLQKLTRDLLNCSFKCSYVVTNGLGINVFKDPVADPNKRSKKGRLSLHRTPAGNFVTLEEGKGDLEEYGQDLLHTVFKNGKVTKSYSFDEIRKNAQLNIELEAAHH

For `CN1CCN(CCC(=O)N2CCC(Oc3ccc(NC(=O)N4CC(c5cccnc5)C4)cc3)CC2)CC1` [Example 38, N-[4-({1-[3-(4-methylpiperazin-1-yl)propanoyl]piperidin-4-yl}oxy)phenyl]-3-(pyridin-3-yl)azetidine-1-carboxamide], the values for the IC50 on NAMPT [1], on NAMPT [2] and in the assay with PC3 cells were 34.3 nM, 0.201 nM and 83.6 nM, respectively.
As for `CCOCC(=O)N1CCC(c2ccc(NC(=O)N3CC(c4cccnc4)C3)cc2)C1` (stereo not shown) [Example 288, N-{4-[1-(ethoxyacetyl)pyrrolidin-3-yl]phenyl}-3-(pyridin-3-yl)azetidine-1-carboxamide], the IC50 worked out at 117 nM on NAMPT [1], 0.227 nM on NAMPT [2] and 84 nM with PC3 cells.
Taken in the same sequence, the figures for `O=C(CC1C[C@@H]2CC[C@H]1C2)N1CCC(c2ccc(NC(=O)N3CC(c4cccnc4)C3)cc2)CC1` (stereo partly drawn) [Example 165, N-(4-{1-[(1S,4R)-bicyclo[2.2.1]hept-2-ylacetyl]piperidin-4-yl}phenyl)-3-(pyridin-3-yl)azetidine-1-carboxamide] were 14.4 nM, 0.389 nM and 61.9 nM.
`CC(C)C(C)C(=O)N1CC(c2ccc(NC(=O)N3CC(c4cccnc4)C3)cc2)C1` (stereo not shown) [Example 230, N-{4-[1-(2,3-dimethylbutanoyl)azetidin-3-yl]phenyl}-3-(pyridin-3-yl)azetidine-1-carboxamide]: the IC50 at NAMPT [1] was 38.8 nM; at NAMPT [2], 0.305 nM.
`O=C(Nc1ccc(C2CCN(CCC3CC3)CC2)cc1)N1CC(c2cccnc2)C1` [Example 242, N-{4-[1-(2-cyclopropylethyl)piperidin-4-yl]phenyl}-3-(pyridin-3-yl)azetidine-1-carboxamide]: the 50% inhibitory concentration (IC50) worked out at 374 nM at NAMPT [1] and 0.225 nM at NAMPT [2].
The matching figures for `CC1(C(=O)N2CC(c3ccc(NC(=O)N4CC(c5cccnc5)C4)cc3)C2)CCCCC1` [Example 215, N-(4-{1-[(1-methylcyclohexyl)carbonyl]azetidin-3-yl}phenyl)-3-(pyridin-3-yl)azetidine-1-carboxamide]: 27.4 nM and 0.294 nM.
Taken in the same sequence, the figures for `O=C(CC1CCCC1)N1CC(c2ccc(NC(=O)N3CC(c4cccnc4)C3)cc2)C1` [Example 229, N-{4-[1-(cyclopentylacetyl)azetidin-3-yl]phenyl}-3-(pyridin-3-yl)azetidine-1-carboxamide] were 40.3 nM and 0.314 nM.
The matching figures for `CC(C)(C)CC(=O)N1CC(c2ccc(NC(=O)N3CC(c4cccnc4)C3)cc2)C1` [Example 205, N-{4-[1-(3,3-dimethylbutanoyl)azetidin-3-yl]phenyl}-3-(pyridin-3-yl)azetidine-1-carboxamide]: 42.6 nM and 0.242 nM.
As for `O=C(CCC(F)(F)F)N1CC(c2ccc(NC(=O)N3CC(c4cccnc4)C3)cc2)C1` [Example 213, 3-(pyridin-3-yl)-N-{4-[1-(4,4,4-trifluorobutanoyl)azetidin-3-yl]phenyl}azetidine-1-carboxamide], the results for the IC50 at NAMPT [1] and at NAMPT [2] were 87.3 nM and 0.352 nM, respectively.
Taken in the same sequence, the figures for `CC(C)(C)CN1CC(c2ccc(NC(=O)N3CC(c4cccnc4)C3)cc2)C1` [Example 254, N-{4-[1-(2,2-dimethylpropyl)azetidin-3-yl]phenyl}-3-(pyridin-3-yl)azetidine-1-carboxamide] were 246 nM and 0.174 nM.
Take `CC(=O)N[C@@H](CC(C)C)C(=O)N1CC(c2ccc(NC(=O)N3CC(c4cccnc4)C3)cc2)C1` [Example 209, N-{4-[1-(N-acetyl-L-leucyl)azetidin-3-yl]phenyl}-3-(pyridin-3-yl)azetidine-1-carboxamide]: the values for the IC50 at NAMPT [1] and on NAMPT [2] were 24 nM and 0.694 nM, respectively.
Taken in the same sequence, the figures for `O=C(Nc1ccc(C2CCN(CC3CCCCC3)CC2)cc1)N1CC(c2cccnc2)C1` [Example 232, N-{4-[1-(cyclohexylmethyl)piperidin-4-yl]phenyl}-3-(pyridin-3-yl)azetidine-1-carboxamide] were 352 nM and 0.181 nM.
Taken in the same sequence, the figures for `CCCCN1CCC(c2ccc(NC(=O)N3CC(c4cccnc4)C3)cc2)CC1` [Example 240, N-[4-(1-butylpiperidin-4-yl)phenyl]-3-(pyridin-3-yl)azetidine-1-carboxamide] were 603 nM and 0.466 nM.
The matching figures for `O=C(Nc1ccc(C2CN(C(=O)c3ccsc3)C2)cc1)N1CC(c2cccnc2)C1` [Example 219, 3-(pyridin-3-yl)-N-{4-[1-(thiophen-3-ylcarbonyl)azetidin-3-yl]phenyl}azetidine-1-carboxamide]: 19.4 nM and 0.29 nM.
With `Cc1ccc(C(=O)N2CC(c3ccc(NC(=O)N4CC(c5cccnc5)C4)cc3)C2)s1` [Example 223, N-(4-{1-[(5-methylthiophen-2-yl)carbonyl]azetidin-3-yl}phenyl)-3-(pyridin-3-yl)azetidine-1-carboxamide], the IC50 worked out at 21.6 nM at NAMPT [1] and 0.391 nM at NAMPT [2].
For `O=C(CN1CCOCC1)N1CC(c2ccc(NC(=O)N3CC(c4cccnc4)C3)cc2)C1` [Example 221, N-{4-[1-(morpholin-4-ylacetyl)azetidin-3-yl]phenyl}-3-(pyridin-3-yl)azetidine-1-carboxamide], the IC50 at NAMPT [1] stood at 152 nM; at NAMPT [2], 0.319 nM.
The matching figures for `CC(=O)N1CC(c2ccc(NC(=O)N3CC(c4cccnc4)C3)cc2)C1` [Example 217, N-[4-(1-acetylazetidin-3-yl)phenyl]-3-(pyridin-3-yl)azetidine-1-carboxamide]: 278 nM and 0.32 nM.
As for `CCC(C)(C)CN1CC(c2ccc(NC(=O)N3CC(c4cccnc4)C3)cc2)C1` [Example 257, N-{4-[1-(2,2-dimethylbutyl)azetidin-3-yl]phenyl}-3-(pyridin-3-yl)azetidine-1-carboxamide], the IC50 was determined as 598 nM on NAMPT [1] and 0.223 nM at NAMPT [2].
Taken in the same sequence, the figures for `O=C(Nc1ccc(C2CN(C(=O)c3nccs3)C2)cc1)N1CC(c2cccnc2)C1` [Example 228, 3-(pyridin-3-yl)-N-{4-[1-(1,3-thiazol-2-ylcarbonyl)azetidin-3-yl]phenyl}azetidine-1-carboxamide] were 19.6 nM and 0.31 nM.
Taken in the same sequence, the figures for `CCCC(C)CN1CCC(c2ccc(NC(=O)N3CC(c4cccnc4)C3)cc2)CC1` (stereo not shown) [Example 234, N-{4-[1-(2-methylpentyl)piperidin-4-yl]phenyl}-3-(pyridin-3-yl)azetidine-1-carboxamide] were 760 nM and 0.529 nM.
Taken in the same sequence, the figures for `CC(C)CCN1CCC(c2ccc(NC(=O)N3CC(c4cccnc4)C3)cc2)CC1` [Example 236, N-{4-[1-(3-methylbutyl)piperidin-4-yl]phenyl}-3-(pyridin-3-yl)azetidine-1-carboxamide] were 667 nM and 0.21 nM.
Regarding `CCC(C)(C)CN1CCC(c2ccc(NC(=O)N3CC(c4cccnc4)C3)cc2)CC1` [Example 244, N-{4-[1-(2,2-dimethylbutyl)piperidin-4-yl]phenyl}-3-(pyridin-3-yl)azetidine-1-carboxamide], the values for the IC50 at NAMPT [1] and on NAMPT [2] were 1170 nM and 0.516 nM, respectively.
The matching figures for `CC1(C(=O)N2CC(c3ccc(NC(=O)N4CC(c5cccnc5)C4)cc3)C2)CC1` [Example 227, N-(4-{1-[(1-methylcyclopropyl)carbonyl]azetidin-3-yl}phenyl)-3-(pyridin-3-yl)azetidine-1-carboxamide]: 69.2 nM and 0.294 nM.
Taken in the same sequence, the figures for `CCOCC(=O)N1CC(c2ccc(NC(=O)N3CC(c4cccnc4)C3)cc2)C1` [Example 207, N-{4-[1-(ethoxyacetyl)azetidin-3-yl]phenyl}-3-(pyridin-3-yl)azetidine-1-carboxamide] were 451 nM and 0.37 nM.
The matching figures for `O=C(Nc1ccc(C2CN(C(=O)C3CCCCC3)C2)cc1)N1CC(c2cccnc2)C1` [Example 211, N-{4-[1-(cyclohexylcarbonyl)azetidin-3-yl]phenyl}-3-(pyridin-3-yl)azetidine-1-carboxamide]: 55.9 nM and 0.341 nM.
As to `Cn1cccc1C(=O)N1CC(c2ccc(NC(=O)N3CC(c4cccnc4)C3)cc2)C1` [Example 225, N-(4-{1-[(1-methyl-1H-pyrrol-2-yl)carbonyl]azetidin-3-yl}phenyl)-3-(pyridin-3-yl)azetidine-1-carboxamide], the half-maximal inhibitory concentration (IC50) on NAMPT [1] came out at 14 nM; at NAMPT [2], 0.268 nM.
Taken in the same sequence, the figures for `CC1CC1C(=O)N1CC(c2ccc(NC(=O)N3CC(c4cccnc4)C3)cc2)C1` (stereo not shown) [Example 199, N-(4-{1-[(2-methylcyclopropyl)carbonyl]azetidin-3-yl}phenyl)-3-(pyridin-3-yl)azetidine-1-carboxamide] were 128 nM and 0.356 nM.
Take `CCOCCC(=O)N1CC(c2ccc(NC(=O)N3CC(c4cccnc4)C3)cc2)C1` [Example 203, N-{4-[1-(3-ethoxypropanoyl)azetidin-3-yl]phenyl}-3-(pyridin-3-yl)azetidine-1-carboxamide]: the IC50 on NAMPT [1] worked out at 250 nM; at NAMPT [2], 0.427 nM.
Taken in the same sequence, the figures for `CC(C)CCC(=O)N1CC(c2ccc(NC(=O)N3CC(c4cccnc4)C3)cc2)C1` [Example 201, N-{4-[1-(4-methylpentanoyl)azetidin-3-yl]phenyl}-3-(pyridin-3-yl)azetidine-1-carboxamide] were 43.2 nM and 0.313 nM.

What is called IC50 is the point on the concentration scale where inhibition reaches its midpoint.
